Laboratory results published in publication PMC5113208 (2016).

Test system: RNA Spinach (RNA, aptamer) GGACGCGACCGAAAUGGUGAAGGACGGGUCCAGUGCGAAACACGCACUGUUGAGUAGAGUGUGAGCUCCGUAACUGGUCGCGUC
Assay: fluorescence titration
Details: 140 mM KCl, 1 mM MgCl2; 10 mM NaH2PO4 pH 7.2, 0.05% Tween-20, room temperature

## CC1=N/C(=C\c2cc(F)c(O)c(F)c2)C(=O)N1C
  KD: 420 ± 40 nM
